Blank lines part the entries; values can stand above or below the molecule they belong to.
Tests used:
[1] = Radioactivity excretion (mass balance) after a single oral dose of ^3H-ADP; format: in vivo; conditions: single oral 5 mg/kg b. w., within 14 d
Procedure: Animals (4 swine, 6 broilers, 6 carp, and 3 male and 3 female rats) were housed individually in clean, suspended wire-mesh metabolism cages, designed to separate the urine from the feces (carp were raised in individual aquaria). Each animal was weighed and assigned with a permanent identification number. A single dose of ^3 H-ADP (5 mg/kg b. w., 0.1 Ci/g) was administered via the oral gavage. Excreta were collected on ice at the pre-administration, in the period of 6, 12, and 24 h on day 1 d, and afterwards, intermittently in the period of 24 h up to 14 d. The piscine excreta were collected by changing and collecting raised water. The total volume or weight of each sample was measured and homogenized. The total radioactivity levels were determined through LSC for the recovery calculations. After the preparation, the samples were analyzed through LC/MS-IT-TOF with v. […] The pretreatment samples were used as controls to determine the background radioactivity or the endogenous nondrug-related ions observed within respective matrices or their extracts.
Measurements of the total radioactivity in each sample were conducted by Packard Tri-Carb 2900 TR liquid scintillation counter (PerkinElmer Life and Analytical Sciences). […] The actual radioactivity of each sample was calculated by subtracting the background value form the mean radioactivity in two blank samples. […]

[2] = Tissue distribution and elimination of total radioactivity (total residues) after oral ^3H-ADP for 7 d; format: in vivo, swine
Procedure: (0.1 Ci/g) through oral gavage for 7 consecutive days. All the animals were housed on the basis of their group in the cages or aquaria throughout the whole study period. A group of animals was slaughtered through exsanguination under diethyl ether inhalation of anesthesia in the period of 6 h, 1, 3, 7, 14, and 21 d after the administration. The blood samples were immediately collected into the heparinized tubes and was centrifuged at 1920 × g at 4 °C for 10 min to obtain the plasma. The tissues from the heart, liver, spleen, lung, kidney, craw (broilers), stomach, intestine, fat, skin, muscle, thymus, pancreas, bile, bladder, hair (scale for carp), genital gland, adrenal glands, swim bladder (carp), brain, lymph, and bursa (broilers) were carefully excised and collected. The tissues were thoroughly rinsed with the deionized water to remove the residuary blood, blotted to dryness, and finally to perform the homogenization. In order to avoid cross-contamination the dissecting instruments were washed during the tissue procurements. The blank tissues were collected in order to provide control matrices. The total radioactivity levels in each sample were determined through LSC. The samples extracted from the plasma, bile, and tissues of the liver, kidney, muscle, and fat/skin were analyzed through LC/MS-IT-TOF and v. ARC radiometric detection for metabolite profiling.
Measurements of the total radioactivity in each sample were conducted by Packard Tri-Carb 2900 TR liquid scintillation counter (PerkinElmer Life and Analytical Sciences). The detection time was 10 min for two cycles. The scintillation counter data were automatically corrected for counting efficiency by instrument-stored quench curve which was drawn with a series of sealed quenched […] standards. The actual radioactivity of each sample was calculated by subtracting the background value form the mean radioactivity in two blank samples. All the samples were analyzed in duplicate if the sample size allowed this. If the results were differed by more than 10% from the mean value, the samples were reanalyzed. The samples with LSC counts less than 2-fold of the level of the running background were considered to contain insufficient radioactivity for reliable quantification.
Aliquots of liquid samples (urine, plasma, bile and raised water, 200 μL) were mixed with 10 mL of Ultima Gold^TM scintillation fluid for the direct analysis by LSC. Aliquots of solid samples (feces and tissues, 200 mg) were digested overnight with 2 mL tissue solubilizer at 50 °C in a shaking water bath, followed by adding 200 μL of 0.1 mol/L EDTA-Na and 200 μL of 30% H2O2, and was bathed at 50 °C for 2 h to bleach. The obtained transparent liquid were mixed with 10 mL of scintillation fluid and finally were counted by LSC. The digestion efficiency was determined by using the blank samples spiked with ^3 H standard for digestion, and the measured radioactivity content in the digested samples were adjusted by using the digestion efficiency values.
The concentrations of ADP and/or its metabolites were analyzed by using the following equation: C = L/(2.22 × 10^9 × RM), where C is the concentration of ADP or/and its metabolites (mg/kg), L is the LSC count (dpm), R is the specific activity of the administered dose (0.1 Ci/g), and M is the weight or volume of samples (kg or L). The results are expressed as mean ± SD. The elimination kinetics of terminal phase for ADP and its metabolites were conducted by using the WinNonlin linear regression program (Pharsight corporation, Statistical consultants, Inc., Kentucky, USA).

urine excretion of radioactivity ([1]; rats): 78 % of the administered dose | urine excretion of radioactivity ([1]; swine): 78 % of the administered dose
Structure (SMILES): COc1cc(Cc2cnc(N)nc2N)cc(OC)c1N(C)C [A0, 2,4-Diamino-5-[4-(dimethylamino)-3,5-dimethoxybenzyl] pyrimidine]

Structure (SMILES): [3H]c1c(Cc2cnc(N)nc2N)cc(OC)c(N(C)C)c1OC [^3H-ADP]
Ke of total residues ([2]; swine Adrenal): 0.28 | Ke of total residues ([2]; swine Bile): 0.71 | Ke of total residues ([2]; swine Bladder): 0.50 | Ke of total residues ([2]; swine Blood): 0.48 | Ke of total residues ([2]; swine Clothing hair): 0.17 | Ke of total residues ([2]; swine Fat): 0.20 | Ke of total residues ([2]; swine Heart): 0.29 | Ke of total residues ([2]; swine Kidney): 0.21 | Ke of total residues ([2]; swine Large Intestine): 0.47 | Ke of total residues ([2]; swine Liver): 0.16 | Ke of total residues ([2]; swine Lung): 0.28 | Ke of total residues ([2]; swine Lymph): 0.46 | Ke of total residues ([2]; swine Muscle): 0.41 | Ke of total residues ([2]; swine Pancreas): 0.27 | Ke of total residues ([2]; swine Skin): 0.42 | Ke of total residues ([2]; swine Small Intestine): 0.54 | Ke of total residues ([2]; swine Spleen): 0.20 | Ke of total residues ([2]; swine Stomach): 0.52 | Ke of total residues ([2]; swine Thymus): 0.37

Source: PMC4738305, “Metabolism and Disposition of Aditoprim in Swine, Broilers, Carp and Rats” (Scientific Reports, 2016)
